Measured values reported in patent US6225329A, “Modulators of protein tyrosine phosphatases (PTPases)” (Novo Nordisk A/S, priority 1998, dated 2001).

Columns and labels:
B cell = conditions: compared to T cells; cited from earlier work
PTP1B = molecular target: T1, PTP1B (Homo sapiens, UniProt P18031); assay: Inhibition of classical PTP1B (truncated, first 321 amino acids) with p-nitrophenyl phosphate substrate; type: biochemical; conditions: p-nitrophenyl phosphate 0.16 to 10 mM; 100 mM sodium acetate pH 5.5; 25° C., 60 minutes
T1 construct: a truncated form of PTP1B (corresponding to the first 321 amino acids); made in house; host or cells: E. coli
T1 sequence (P18031 1-321): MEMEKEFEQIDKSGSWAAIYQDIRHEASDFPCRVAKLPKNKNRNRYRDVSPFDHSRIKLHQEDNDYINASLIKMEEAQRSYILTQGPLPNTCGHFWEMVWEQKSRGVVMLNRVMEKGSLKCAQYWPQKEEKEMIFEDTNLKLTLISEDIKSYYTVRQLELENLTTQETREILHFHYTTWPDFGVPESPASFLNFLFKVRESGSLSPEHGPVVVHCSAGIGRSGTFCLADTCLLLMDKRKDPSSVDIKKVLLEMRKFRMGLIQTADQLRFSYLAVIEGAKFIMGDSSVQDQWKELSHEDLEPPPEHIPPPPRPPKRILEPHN
Method: The assay conditions are as follows. […] The buffer used was 100 mM sodium acetate pH 5.5, 50 mM sodium chloride, 0.1% (w/v) bovine serum albumin and 5 mM dithiothreitol (total volume […]). The reaction was started by addition of the enzyme and carried out in microtiter plates at 25° C. for 60 minutes. The reactions are stopped by addition of NaOH. […] Inhibition is expressed as Ki values in μM.

[1] = system: osteoblastic acid phosphatase; conditions: mitogenic concentrations of fluoride; cited from earlier work
[2] = osteoporotics; cited from earlier work
osteoblast = conditions: cited from earlier work
[3] = system: osteoblast-like cell line UMR106; conditions: cited from earlier work; for stimulation of cell growth relative to vanadate: compared with vanadate
skeletal muscle = conditions: cited from earlier work
platelets = conditions: cited from earlier work
adipocytes = conditions: cited from earlier work
SSTR1 = SSTR1 stably expressed in CHO-K1 cells; pertussis toxin-sensitive; cited from earlier work

Compound: Cc1occc(=O)c1[O-].Cc1occc(=O)c1[O-].[O]=[V+2] [BMLOV]
- B cell selective apoptosis (B cell): apparent B cell selective apoptosis

Compound: O=C(O)C(=O)Nc1cc2ccccc2cc1C(=O)O [Example 2, 3-(Oxalyl-amino)naphthalene-2-carboxylic acid]
- Ki (PTP1B): 9.9 µM

Compound: F [fluoride]
- sensitivity of osteoblastic acid phosphatase [1]: highly sensitive
- spinal bone density [2]: increase spinal bone density in osteoporotics

Compound: [O]=[V]([O-])([O-])[O-] [orthovanadate]
- osteoblast proliferation and matrix formation (osteoblast): appears to enhance osteoblast proliferation and matrix formation

Compound: [O]=[V]([O-])([O-])[O-] [vanadate]
- cell differentiation as measured by cell alkaline phosphatase activity ([3]; cell alkaline phosphatase activity): able to regulate the cell differentiation
- growth of UMR106 cells [3]: increased the growth

Compound: O=S(=O)([O-])[O-].[O]=[V+2] [vanadyl]
- growth of UMR106 cells [3]: increased the growth
- stimulation of cell growth relative to vanadate [3]: stronger stimulators of cell growth than vanadate

Compound: pervanadate
- insulin response when added to whole cells (skeletal muscle): almost full insulin response
- tyrosine phosphorylation, secretion and aggregation of platelets (platelets): significant increase in tyrosine phosphorylation, secretion and aggregation
- growth of UMR106 cells [3]: increased the growth
- stimulation of cell growth relative to vanadate [3]: stronger stimulators of cell growth than vanadate
- insulin response when added to whole cells (adipocytes): almost full insulin response

Compound: somatostatin
- stimulation of PTPase activity (SSTR1): can stimulate PTPase activity
